Test results from patent US10722496B2, “2-iminobiotin for use in the treatment of brain cell injury” (Neurophyxia B.V., priority 2015, dated 2020).

Tested on: akt
Assay: Western blotting, akt phosphorylation
Format: cell-based, human
Protocol: In vitro hypoxia was induced in the cell cultures by using our recently described system with minor modifications (Huang et al., 2013b; Weber et al., 2015; Zitta et al., 2010). Enzyme stock solutions (100×) of catalase and glucose oxidase (both from Sigma-Aldrich) were prepared in cell culture medium (DMEM/F12, 1% FCS; final concentration: 120 U/ml and 2 U/ml respectively; Sigma-Aldrich) leading to a decrease of partial pressure of oxygen (pO2) below 10 mmHg within 5 minutes. Hypoxic conditions were confirmed by using a tissue oxygen pressure monitor (LICOX® CMP Oxygen Catheter; Integra, Plainsboro, USA). After 7 hours of hypoxia, the cells were washed twice with PBS (PAA) and fresh normoxic medium supplemented with solvent (citrate buffer 1%) or 2-IB (10, 30, 50, 100 and 300 ng/mL) was added to the cells. […]
Protein extraction was performed using RIPA buffer containing 150 mM sodium chloride, 1% NP-40, 1% sodium deoxycholate, 0.1% sodium dodecyl sulfate (SDS) and 50 mM Tris-HCl buffer (pH 7.6; all from Sigma-Aldrich) or alternatively M-PER buffer (Mammalian Protein Extraction Reagent; Pierce, Ill., USA). Protein concentrations were determined with Roti®-Quant assays (Carl Roth) and samples were stored at −20° C. until use. […] Images were taken and densitometrically analyzed with the software ImageJ (v1.41o, NIH).

With `N=C1N[C@H]2[C@H](CS[C@H]2CCCCC(=O)O)N1` [2-IB, 2-iminobiotin] as the compound, how does the phospho akt/akt (hypoxia plus 30 ng/ml 2-IB) read?
The phospho akt/akt was 0.60±0.33.

And the phospho akt/akt (normoxia plus 30 ng/ml 2-IB)?
The phospho akt/akt was 0.78±0.54.
